From patent US20090247579A1, “2-[3H-THIAZOL-2-YLIDINEMETHYL]PYRIDINES AND RELATED COMPOUNDS AND THEIR USE” (CANCER RESEARCH TECHNOLOGY LIMITED, priority 2006, published 2009) come the findings set out here.

For one assay, the system named is PC3. Description: Cancer cell line panel, PC3 (prostate). It counts as cell-based. The procedure:
(§1) Relative drug sensitivities (Resistance Factor) and IC50 values were determined by a modified MTT assay (see, e.g., Mosmann, 1983; Plumb et al., 1989), as described below: • (1) Trypsinise a sub-confluent monolayer culture and collect cells in growth medium containing serum. Centrifuge the suspension (200 g, 5 minutes) to pellet cells, re-suspend in growth medium, and count cells. Dilute cells to a density of 5×10^3 cells/mL allowing 60 mL of cell suspension for 3 microtitre plates. Transfer cell suspension to a 10 cm petri dish, and with a multichannel pipette add 200 μL to each well of the central 10 columns of a flat bottomed 96-well plate (80 wells per plate) starting with column 2 and ending with column 11. Add 200 μL of growth medium to the 8 wells in columns 1 and 12. […] Glycine buffer is added (25 μL per well) to all wells containing DMSO. • (8) Absorbance is recorded at 570 nm with the wells in column 1, which contained medium and MTT but no cells used as a blank. • (9) A graph is plotted of absorbance (y-axis) against drug concentration (x-axis). The mean absorbance reading from the wells in columns 2 and 11 is used as the control absorbance and the IC50 concentration is determined as the drug concentration required to reduce the absorbance to half that of the control. IC10 or IC90 values can be determined in the same manner. […]

Another assay has as its system A2780/cp70. Description: Modified MTT assay, A2780/cp70 (cisplatin resistant, MMR deficient). It counts as cell-based, human. As to conditions: 24 hour drug exposure; for IC50: MTT; for A2780/cp70 RF (Resistance Factor): fold difference in resistance from parental A2780. The procedure: (§2) Relative drug sensitivities (Resistance Factor) and IC50 values were determined by a modified MTT assay (see, e.g., Mosmann, 1983; Plumb et al., 1989), as described below: • (1) Trypsinise a sub-confluent monolayer culture and collect cells in growth medium containing serum. Centrifuge the suspension (200 g, 5 minutes) to pellet cells, re-suspend in growth medium, and count cells. Dilute cells to a density of 5×10^3 cells/mL allowing 60 mL of cell suspension for 3 microtitre plates. Transfer cell suspension to a 10 cm petri dish, and with a multichannel pipette add 200 μL to each well of the central 10 columns of a flat bottomed 96-well plate (80 wells per plate) starting with column 2 and ending with column 11. Add 200 μL of growth medium to the 8 wells in columns 1 and 12. Put the plates in a plastic box and incubate in a humidified atmosphere at 37° C. for 2-3 days so that cells are in the exponential phase of growth for drug addition. • (2) Prepare a serial 5-fold dilution of the cytotoxic drug in growth medium to give 8 concentrations. Pipette 6 mL of growth medium in to each of 7 universal containers (30 mL). Prepare 10 mL of the highest concentration of the drug and transfer 1.5 mL of this solution to the first universal container. Mix and then transfer 1.5 mL to the next universal container. Continue until the seventh universal container is reached. The concentrations should be chosen so that the highest concentration kills most of the cells and the lowest kills none of the cells. Normally, three plates are used for each drug to give triplicate determinations within one experiment. • (3) The medium is removed from all the wells in columns 2 to 11. This can be achieved with a hypodermic needle attached to a suction line. Cells in the 8 wells in columns 2 and 11 are fed with 200 μL of fresh growth medium. The drug solutions are transferred to 10 cm petri dishes and 200 μL added to all 8 wells of a column. For ease of analysis arrange the drug solutions in order so that the highest is in column 3 down to the lowest in column 10. Plates are returned to the plastic box and incubated for 24 hours. • (4) At the end of the drug exposure period, the medium is removed from all wells containing cells and the cells are fed with 200 μL of fresh medium. • (5) The plates are fed daily for two more days. • (6) The plates are fed with 200 μL of fresh medium and 50 μL of the MTT solution (5 mg/mL in PBS) is added to all wells in columns 1 to 11. Plates are wrapped in aluminium foil and incubated for 4 hours in a humidified atmosphere at 37° C. • (7) The medium and MTT are then removed from the wells and the purple MTT-formazan crystals dissolved by addition of 200 μL of DMSO to all wells in columns 1 to 11. Glycine buffer is added (25 μL per well) to all wells containing DMSO. • (8) Absorbance is recorded at 570 nm with the wells in column 1, which contained medium and MTT but no cells used as a blank. • (9) A graph is plotted of absorbance (y-axis) against drug concentration (x-axis). The mean absorbance reading from the wells in columns 2 and 11 is used as the control absorbance and the IC50 concentration is determined as the drug concentration required to reduce the absorbance to half that of the control. IC10 or IC90 values can be determined in the same manner.
(§3) A2780/cp70 and A2780/mcp1 have lost expression of MLH1, have lost MMR activity, and have microsatellite instability compared to A2780. The CpG island at the MLH1 gene is methylated in A2780/cp70 and A2780/mcp1, but not A2780.
(§4) IC50 values (μM) for A2780, A2780/cp70, and A2780/mcp1 and Resistance Factors (RF) (the fold difference in resistance from parental A2780) were determined based on the MTT assay described above for several compounds of the present invention (including, e.g., MMR201).
Background: Tetrazolium assays rely on reduction of a dye to a coloured formazan, in cell work by metabolically active cells.

Assay [1] deals with A2 (MLH1−ve, MMR deficient). Description: Modified MTT assay, A2 line (A2780/cp70 + chromosome 3, MLH1 -ve). It counts as cell-based, human. The note with it: for IC50: A2 line; for RF (Resistance Factor): fold difference in resistance between A2 (MMR deficient) and A1 (MMR proficient). How it is done:
as §2
A1, E1, and A2 are derived by transfer of human chromosome 3 into A2780/cp70. MLH1 is located on chromosome 3.
IC50 values (μM) for A1 (MLH1+ve, MMR proficient) or E1 (MLH1+ve, MMR proficient) and A2 (MLH1−ve, MMR deficient) lines and Resistance Factors (RF) (the fold difference in resistance between the A2 line, MMR deficient, and the A1 line, MMR proficient) were determined based on the MTT assay described above for several compounds of the present invention (including, e.g., MMR201). Compounds showing increased activity against the MLH1 deficient A2 line compared to the MLH1 proficient A1 or E1 line have RF values less than 1.

For another assay, the system named is A2780/mcp1. Description: Modified MTT assay, A2780/mcp1 (cisplatin resistant, MMR deficient). Type of assay: cell-based, human. As to conditions: 24 hour drug exposure; for IC50: MTT; for A2780/mcp1 RF (Resistance Factor): fold difference in resistance from parental A2780. How it is done:
as §2, §3, §4

The test system of the next assay is A375. Description: Cancer cell line panel, A375 (melanoma). It counts as cell-based. The procedure:
as §1

In the next assay the test system is DLD1 (MSH6). Description: Modified MTT assay, colon panel DLD1. It counts as cell-based. The procedure: as §1
The subject of the next assay is COLO320DM. Description: Modified MTT assay, colon panel COLO320DM. Type of assay: cell-based. The procedure:
as §1

In another assay the test system is OVCAR5. Description: Cancer cell line panel, OVCAR5 (ovary). Type of assay: cell-based. How it is done: as §1
For the next assay, the system named is SKMES. Description: Cancer cell line panel, SKMES (NSCLC). Type of assay: cell-based. The procedure: as §1
Another assay has as its system MDAMB231. Description: Cancer cell line panel, MDAMB231 (breast). Type of assay: cell-based. How it is done: as §1
Another assay relates to HS294. Description: Cancer cell line panel, HS294 (melanoma). It counts as cell-based. The procedure: as §1
In a further assay the test system is CALU. Description: Cancer cell line panel, CALU (NSCLC). Type of assay: cell-based. How it is done:
as §1

Another assay concerns HT29. Description: Modified MTT assay, colon panel HT29. Type of assay: cell-based. How it is done: as §1
A further assay relates to DU145. Description: Cancer cell line panel, DU145 (prostate). It counts as cell-based. The procedure: as §1
A further assay concerns LDAN. Description: Cancer cell line panel, LDAN (NSCLC). It counts as cell-based. How it is done:
as §1

A further assay deals with SW48 (MLH1). Description: Modified MTT assay, colon panel SW48. Type of assay: cell-based. How it is done:
as §1

[2] abbreviates: read-out: Cisplatin IC50, MMR proficient, p53 mut.

“And” between values parts separate entries of the source, which are not always exact repeats. Equal entries are not always repeated. Where two headings read alike, the source gives them in different places.

For `N.N.[Cl][Pt][Cl]` [Cisplatin, reference compound], the IC50 in the assay with PC3 (read-out: Cisplatin) was 2270 ± 270 nM; in the assay with A2780/cp70, 1740 nM and 1680 nM; in assay [1], 1900 ± 87 nM; with A2780/mcp1, 547 nM and 672 nM; in the assay with A375 (read-out: Cisplatin) it was 613 ± 51 nM; in the assay with DLD1 (MSH6) (read-out: Cisplatin IC50, MMR deficient, p53 mut), 1670 ± 30 nM. The IC50 came to 2900 ± 290 nM with COLO320DM (setting [2]); 1780 ± 100 nM in the assay on OVCAR5 (read-out: Cisplatin); 5160 ± 80 nM in the assay on SKMES (read-out: Cisplatin); 11200 ± 700 nM in the assay on MDAMB231 (read-out: Cisplatin); 1490 ± 80 nM in the assay on HS294 (read-out: Cisplatin); 7250 ± 580 nM in the assay with CALU (read-out: Cisplatin). Also, the IC50 in the assay with HT29 (setting [2]) was 5670 ± 640 nM; in the assay with DU145 (read-out: Cisplatin) it was 1680 ± 40 nM; in the assay on LDAN (read-out: Cisplatin) it was 1230 ± 70 nM; in the assay on SW48 (MLH1) (read-out: Cisplatin IC50, MMR deficient, p53 wt), 1820 ± 70 nM. For the same molecule, the “A2780/cp70 RF (Resistance Factor)” value with A2780/cp70 was 8.1 and 6.9. Besides, the “RF (Resistance Factor)” value in assay [1] is reported as 2.7. In addition, in the assay with A2780/mcp1, the “A2780/mcp1 RF (Resistance Factor)” value is 2.5 and 2.8.

Turning to `CC[n+]1c(/C=C2\Sc3oc4ccccc4c3N2C)ccc2cc(C)ccc21.[I-]` [MMR201], the IC50 came out at 531 ± 50.3 nM in the assay on PC3 (Homo sapiens, PC-3, read-out: MMR201); 17 ± 1 nM in the assay on A2780/cp70 (Homo sapiens, A2780/CP70); 23 ± 1 nM in [1] (Homo sapiens, A2780/CP70); 14 ± 1 nM with A2780/mcp1 (Homo sapiens, A2780/mcp1); 118 ± 17.7 nM in the assay with A375 (Homo sapiens, A-375, read-out: MMR201); 186 ± 8.3 nM in the assay on DLD1 (MSH6) (Homo sapiens, DLD-1, MMR deficient, p53 mut, read-out: MMR201 IC50). The IC50 stood at 594 ± 28.5 nM in the assay on COLO320DM (Homo sapiens, COLO 320DM, MMR proficient, p53 mut, read-out: MMR201 IC50); 699 ± 54.6 nM in the assay on OVCAR5 (Homo sapiens, OVCAR-5, read-out: MMR201); 398 ± 61.9 nM with SKMES (read-out: MMR201); 235 ± 22.5 nM with MDAMB231 (Homo sapiens, MDA-MB-231, read-out: MMR201); 105 ± 5.1 nM in the assay on HS294 (read-out: MMR201); 380 ± 7.5 nM in the assay on CALU (read-out: MMR201). For the same molecule, the IC50 stood at 118 ± 9.1 nM in the assay on HT29 (Homo sapiens, HT-29, MMR proficient, p53 mut, read-out: MMR201 IC50); 328 ± 7.8 nM in the assay on DU145 (Homo sapiens, DU-145, read-out: MMR201); 114.4 ± 0.07 nM in the assay on LDAN (read-out: MMR201); 76.9 ± 7.3 nM with SW48 (MLH1) (Homo sapiens, MMR deficient, p53 wt, read-out: MMR201 IC50). Further, the “A2780/cp70 RF (Resistance Factor)” value in the assay on A2780/cp70 was 0.29. Moreover, the “RF (Resistance Factor)” value in assay [1] turned out to be 0.19. The “A2780/mcp1 RF (Resistance Factor)” value in the assay with A2780/mcp1 was found to be 0.24.
